Each structure is given as a SMILES string.

For this test, the target named is T1, human A2A adenosine receptor (Homo sapiens, UniProt P29274).
T1 construct: expressed in transfected cells; host or cells: HEK293 or CHO cells
T1 sequence (P29274 whole entry): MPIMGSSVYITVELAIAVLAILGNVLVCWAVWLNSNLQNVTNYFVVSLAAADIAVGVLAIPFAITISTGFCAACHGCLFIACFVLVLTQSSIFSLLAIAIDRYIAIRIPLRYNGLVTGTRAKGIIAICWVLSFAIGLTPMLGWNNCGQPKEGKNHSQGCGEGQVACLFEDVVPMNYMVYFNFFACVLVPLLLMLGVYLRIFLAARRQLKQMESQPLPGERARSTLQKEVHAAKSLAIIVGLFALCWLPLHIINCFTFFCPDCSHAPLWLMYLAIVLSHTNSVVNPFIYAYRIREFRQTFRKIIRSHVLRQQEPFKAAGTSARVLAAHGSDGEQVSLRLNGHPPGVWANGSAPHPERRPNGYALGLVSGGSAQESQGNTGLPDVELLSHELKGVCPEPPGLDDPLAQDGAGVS
Description: A2A binding affinity, Method (B): scintillation proximity assay (SPA) with [3H]SCH58261. The following applies: membranes of HEK293 or CHO cells expressing the human receptor. The source says: Method (A) describes the procedure used to measure A2A binding affinity using radioligand binding. Method (B) describes the procedure used to measure A2A binding affinity using SPA technology. The method used to measure A2B binding affinity is also described below. The method used to determine the A2A IC50 value reported for each compound in the table is indicated next to the reported value. The A2B IC50 value measured using the A2B binding affinity assay is shown in the table next to the compound under the corresponding A2A value.
The A2A receptor affinity binding assay measured the amount of binding of a tritiated ligand with high affinity for the A2A adenosine receptor to membranes made from HEK293 or CHO cells recombinantly expressing the human A2A adenosine receptor, in the presence of varying concentrations of a compound of the invention. The data were generated using either filtration binding or a homogenous scintillation proximity assay (SPA).
Method (B): Measurement of A2A Binding Affinity Using SPA
Binding affinity using SPA was conducted as follows. Test compounds (50 nL) were dispensed into individual wells of a 384-well OptiPlate™ well (Perkin Elmer) by Echo® acoustic liquid transfer (Labcyte). 20 µL of 1.25 nM [^3H] SCH58261 ((7-(2-phenylethyl)-5-amino-2-(2-furyl)-pyrazolo-[4,3-e]-1,2,4-triazolo[1,5-c]pyrimidine)) in DPBS assay buffer (Dulbecco’s phosphate buffered saline without calcium and magnesium, ThermoFisher Scientific, Cat. No. A1285601) supplemented with 10 mM MgCl2 was added. A2A receptor-expressing membranes were incubated with 20 µg/mL adenosine deaminase (Roche, Cat. No. 10 102 105 001) for 15 min at room temperature. The receptor-expressing membranes were then combined with wheat germ agglutinin-coated yttrium silicate SPA beads (GE Healthcare, Cat. No. RPNQ0023) in a ratio of […] (w/w) and incubated for 30 min at room temperature. 30 µL of the membrane/bead mixture (0.25 µg and 25 µg per well respectively) were added to the 384-well OptiPlate™ well. To define total and non-specific binding, wells containing 1% DMSO or 1 µM CGS 15943 (Tocris Bioscience, Cat. No. 1699) respectively were also included in the experiment. The plate was incubated for 1 h at room temperature with agitation. The assay plate was then incubated for an h to allow the beads to settle before data were collected using a TopCount® (Perkin Elmer) scintillation counter. After normalization to total and non-specific binding, the percent effect at each compound concentration was calculated. The plot of percent effect versus the log of compound concentration was analyzed electronically using a 4-parameter logistic fit based on the Levenberg-Marquardt algorithm to generate IC50 values.
(In general: In a scintillation proximity assay essentially only radioactivity close to the scintillant gives light.)
In turn, `COc1cccc2c1nc(N)n1nc(CN(Cc3ncco3)CC3CC3)nc21` [Example 16.11, 2-(((cyclopropylmethyl)(oxazol-2-ylmethyl)amino)methyl)-7-methoxy-[1,2,4]triazolo[1,5-c]quinazolin-5-amine] had an IC50 of 9.4 nM.
For `COc1cccc2c1nc(N)n1nc(CN(Cc3ccc(OC(F)(F)F)cc3)CC3CC3)nc21` [Example 15.7, 2-(((cyclopropylmethyl)(4-(trifluoromethoxy)benzyl)amino)methyl)-7-methoxy-[1,2,4]triazolo[1,5-c]quinazolin-5-amine], the IC50 was 3.9 nM.
The compound `COc1cccc2c1nc(N)n1nc(CNCc3ccc(Br)cc3)nc21` [Example 7.9, 2-(((4-bromobenzyl)amino)methyl)-7-methoxy-[1,2,4]triazolo[1,5-c]quinazolin-5-amine] came in with an IC50 of 5.4 nM.
The value for `COc1cccc2c1nc(N)n1nc(CN(Cc3cccc4ncccc34)CC3CC3)nc21` [Example 16.16, 2-(((cyclopropylmethyl)(quinolin-5-ylmethyl)amino)methyl)-7-methoxy-[1,2,4]triazolo[1,5-c]quinazolin-5-amine] was 3.5 nM; that for `COc1cccc2c1nc(N)n1nc(CN(Cc3ccc(C(F)(F)F)cc3)S(=O)(=O)C3CC3)nc21` [Example 19.5, N-((5-amino-7-methoxy-[1,2,4]triazolo[1,5-c]quinazolin-2-yl)methyl)-N-(4-(trifluoromethyl)benzyl)cyclopropanesulfonamide] was 17.6 nM.
Consider `COc1cccc2c1nc(N)n1nc(CNC(C)(C)C(F)(F)F)nc21` [Example 10.10, 7-methoxy-2-(((1,1,1-trifluoro-2-methylpropan-2-yl)amino)methyl)-[1,2,4]triazolo[1,5-c]quinazolin-5-amine], for which the IC50 worked out at 4.8 nM.
The value for `COc1cccc2c1nc(N)n1nc(CCCNCc3ccc(S(F)(F)(F)(F)F)cc3)nc21` [Example 10.7, 7-methoxy-2-(3-((4-(pentafluoro-λ^6-sulfaneyl)benzyl)amino)propyl)-[1,2,4]triazolo[1,5-c]quinazolin-5-amine] was 45.2 nM.
Turning to `COc1cccc2c1nc(N)n1nc(CCNCc3ccc(C(F)(F)F)cc3)nc21` [Example 22.3, 7-methoxy-2-(2-((4-(trifluoromethyl)benzyl)amino)ethyl)-[1,2,4]triazolo[1,5-c]quinazolin-5-amine], the IC50 is 16.7 nM.
Under `COc1cccc2c1nc(N)n1nc(CC(=O)NCc3ccc(OC(F)(F)F)cc3)nc21` [Example 4.5, 2-(5-amino-7-methoxy-[1,2,4]triazolo[1,5-c]quinazolin-2-yl)-N-(4-(trifluoromethoxy)benzyl)acetamide] stands 5.8 nM; under `COc1cccc2c1nc(N)n1nc(CN(Cc3cccc(Br)n3)CC3CC3)nc21` [Example 16.3, 2-((((6-bromopyridin-2-yl)methyl)(cyclopropylmethyl)amino)methyl)-7-methoxy-[1,2,4]triazolo[1,5-c]quinazolin-5-amine], 14.6 nM; under `COc1cccc2c1nc(N)n1nc(CN(Cc3ccnc4[nH]ccc34)CC3CC3)nc21` [Example 16.10, 2-((((1H-pyrrolo[2,3-b]pyridin-4-yl)methyl)(cyclopropylmethyl)amino)methyl)-7-methoxy-[1,2,4]triazolo[1,5-c]quinazolin-5-amine], 2.3 nM.
`CCCN(Cc1ccc(C(F)(F)F)cc1)Cc1nc2c3cccc(OC)c3nc(N)n2n1` [Example 15.3, 7-methoxy-2-((propyl(4-(trifluoromethyl)benzyl)amino)methyl)-[1,2,4]triazolo[1,5-c]quinazolin-5-amine] came in with an IC50 of 2.3 nM.
The value for `COc1cccc2c1nc(N)n1nc(CCNCc3ccccc3C(F)(F)F)nc21` [Example 22.6, 7-methoxy-2-(2-((2-(trifluoromethyl)benzyl)amino)ethyl)-[1,2,4]triazolo[1,5-c]quinazolin-5-amine] was 9.7 nM.
The value for `CCN(Cc1ccccn1)Cc1nc2c3cccc(OC)c3nc(N)n2n1` [Example 7.4, 2-((ethyl(pyridin-2-ylmethyl)amino)methyl)-7-methoxy-[1,2,4]triazolo[1,5-c]quinazolin-5-amine] was 31.4 nM; that for `COc1cccc2c1nc(N)n1nc(C[C@@H](C)NCc3oc(C)nc3C)nc21` [Example 24.3, (R)-2-(2-(((2,4-dimethyloxazol-5-yl)methyl)amino)propyl)-7-methoxy-[1,2,4]triazolo[1,5-c]quinazolin-5-amine] was 11.1 nM; that for `COc1cccc2c1nc(N)n1nc(CN(Cc3ccc(C(F)(F)F)cc3)CC3CC3)nc21` [Example 15.2, 2-(((cyclopropylmethyl)(4-(trifluoromethyl)benzyl)amino)methyl)-7-methoxy-[1,2,4]triazolo[1,5-c]quinazolin-5-amine] was 3 nM.
In the case of `COc1cccc2c1nc(N)n1nc(CN(Cc3ccc(OC(F)(F)F)cc3)CC3CCCC3)nc21` [Example 15.9, 2-(((cyclopentylmethyl)(4-(trifluoromethoxy)benzyl)amino)methyl)-7-methoxy-[1,2,4]triazolo[1,5-c]quinazolin-5-amine], the IC50 was determined as 123 nM.
Under `COc1cccc2c1nc(N)n1nc(CNCCc3ccc(C(F)(F)F)cc3)nc21` [Example 8.8] stands 17.3 nM; under `COc1cccc2c1nc(N)n1nc(CN(Cc3ccc(OC(F)(F)F)cc3)CC3CCCCC3)nc21` [Example 15.11, 2-(((cyclohexylmethyl)(4-(trifluoromethoxy)benzyl)amino)methyl)-7-methoxy-[1,2,4]triazolo[1,5-c]quinazolin-5-amine], 123 nM; under `COc1cccc2c1nc(N)n1nc(CN(Cc3ccc(OC(F)(F)F)cc3)S(=O)(=O)C(F)(F)F)nc21` [Example 19.4, N-((5-amino-7-methoxy-[1,2,4]triazolo[1,5-c]quinazolin-2-yl)methyl)-1,1,1-trifluoro-N-(4-(trifluoromethoxy)benzyl)methanesulfonamide], 50.4 nM.
Consider `COc1cccc2c1nc(N)n1nc(CN(Cc3ccc(OC(F)(F)F)cc3)C(=O)NC(C)C)nc21` [Example 20.3, 1-((5-amino-7-methoxy-[1,2,4]triazolo[1,5-c]quinazolin-2-yl)methyl)-3-isopropyl-1-(4-(trifluoromethoxy)benzyl)urea], for which the IC50 stood at 22.6 nM.
As for `COCc1ccc(CNCc2nc3c4cccc(OC)c4nc(N)n3n2)cc1` [Example 7.7, 7-methoxy-2-(((4-(methoxymethyl)benzyl)amino)methyl)-[1,2,4]triazol[1,5-c]quinazolin-5-amine], the IC50 turned out to be 2.2 nM.
Under `COCCN(Cc1ccc(C(F)(F)F)cc1)Cc1nc2c3cccc(OC)c3nc(N)n2n1` [Example 15.15, 7-methoxy-2-(((2-methoxyethyl)(4-(trifluoromethyl)benzyl)amino)methyl)-[1,2,4]triazolo[1,5-c]quinazolin-5-amine] stands 6.6 nM; under `COc1cccc2c1nc(N)n1nc(CNCC3(c4cccc(F)c4)CCOCC3)nc21` [Example 10.14, 2-((((4-(3-fluorophenyl)tetrahydro-2H-pyran-4-yl)methyl)amino)methyl)-7-methoxy-[1,2,4]triazolo[1,5-c]quinazolin-5-amine], 6.4 nM; under `COc1cccc2c1nc(N)n1nc(CN(Cc3ccc(C(F)(F)F)cc3)C3CC3)nc21` [Example 8.9, 2-((cyclopropyl(4-(trifluoromethyl)benzyl)amino)methyl)-7-methoxy-[1,2,4]triazolo[1,5-c]quinazolin-5-amine], 2.5 nM.
The value for `COc1cccc2c1nc(N)n1nc(CNC(C)(C)c3cccnc3)nc21` [Example 7.5, 7-methoxy-2-(((2-(pyridin-3-yl)propan-2-yl)amino)methyl)-[1,2,4]triazolo[1,5-c]quinazolin-5-amine] was 20.5 nM; that for `COc1cccc2c1nc(N)n1nc(CN(Cc3ccc(OC(C)C)nc3)CC3CC3)nc21` [Example 16.7, 2-(((cyclopropylmethyl)((6-isopropoxypyridin-3-yl)methyl)amino)methyl)-7-methoxy-[1,2,4]triazolo[1,5-c]quinazolin-5-amine] was 13.5 nM.
The value for `COc1cccc2c1nc(N)n1nc(CN(Cc3ccc(C(F)(F)F)cc3)S(C)(=O)=O)nc21` [Example 19.2, N-((5-amino-7-methoxy-[1,2,4]triazolo[1,5-c]quinazolin-2-yl)methyl)-N-(4-(trifluoromethyl)benzyl)methanesulfonamide] was 7.5 nM.

As usually defined, the IC50 is the concentration that gives 50% inhibition. A higher IC50 goes with weaker potency in that assay.
